From US11433042B2, “Methods and compositions for treating metabolic disorders” (Joslin Diabetes Center, Inc., priority 2017, dated 2022)

What was measured:
Format in all cases: cell-based
[1] = system: FATP1; experiment: Membrane fractionation and immunoblot, FATP1; settings: differentiated WT-1 brown adipocytes, 1 μM for 15 minutes
Method: (§1) WT-1 brown preadipocytes were differentiated according to a standard adipogenic differentiation protocol for 9 days before cells were serum starved for 1 hour. Cells were treated with 1 μM 12,13-diHOME or methyl acetate vehicle in 0.1% BSA w/v in PBS for 15 minutes before cells were scraped from tissue culture plates into homogenization buffer and membranes were separated according to previously published protocols (Nishiumi, S. & Ashida, H., Bioscience, biotechnology, and biochemistry. 71, 2343-2346 (2007)). Protein lysates were stored at −20° C. until further use. Protein concentrations were determined by using the Pierce BCA kit (Life Technologies) according to instructions. For immunoblots, lysates were diluted into Laemmli buffer and boiled, then loaded onto 10% Tris gels for SDS-PAGE. After complete separation of the proteins, these were transferred on a PVDF membrane (Amersham Biosciences), blocked in western blocking buffer (Roche), and primary antibodies listed in Table 1, below, were applied in blocking buffer over night at 4° C. After washing 4× for 15 min with TBS-T, secondary antibodies were applied for 1 h in blocking buffer. Membranes were washed again 3× times for 15 min in TBS-T and developed using chemiluminescence (ThermoFisher). After scanning films, densitometry was analyzed using ImageJ software.

[2] = system: WT-1 brown adipocytes; experiment: 14C-labeled palmitic acid uptake and oxidation; settings: mature brown adipocytes
Method: FA uptake and oxidation were determined by measuring both ^14C-labeled palmitic acid uptake and conversion of ^14C-labeled palmitic acid into CO2. WT-1 brown preadipocytes were differentiated according to a standard adipogenic differentiation protocol for 9 days before cells were serum starved for 1 hour. Cells were treated with 1 μM 12,13-diHOME or methyl acetate vehicle in 0.1% w/v BSA in PBS for 15 minutes before the culture medium was removed, and cells were incubated with DMEM/H containing 4% FA-free BSA w/v in PBS, 0.5 mM palmitic acid, and 0.2 μCi/mL [1-^14C]-palmitic acid (PerkinElmer Life and Analytical Science, Waltham, Mass.) for 1 h. The incubation medium was transferred to a vial containing 1M acetic acid, capped quickly, and allowed to incubate for 1 h for CO2 gas to be released. The CO2 released was absorbed by hyamine hydroxide, and activity was counted. FA oxidation was calculated from CO2 generated. To measure fatty acid uptake, cells were rinsed twice with PBS and lysed after incubation with [1-^14C]-palmitic acid. Lipids were extracted using a chloroform-methanol mixture (2:1), and ^14C-counts were determined in the organic phase. Protein concentrations were determined by using the Pierce BCA kit (Life Technologies) according to instructions, and FA uptake (^14C lipids in the cells) and oxidation (^14CO2 generated) were normalized to protein content. […]

[3] = system: CD36; experiment: Membrane fractionation and immunoblot, CD36; settings: differentiated WT-1 brown adipocytes, 1 μM for 15 minutes
Method: as §1

[4] = system: WT-1 brown adipocytes; experiment: Seahorse Bioanalyzer oxygen consumption
Method: WT-1 brown preadipocytes were seeded onto gelatin coated Seahorse Plates and differentiated according to standard protocols. Cells were starved for 1 h, then treated for 15 min with 1 μM 12,13-diHOME or methyl acetate vehicle. The oxygen consumption rates (OCR) were monitored in 200 μM palmitic acid plus 100 μM albumin in a Seahorse XF24 instrument using the standard protocol of 3 min mix, 2 min wait, and 3 min measure. For the normalization of respiration to protein content, cells were lysed in RIPA buffer and protein concentration was measured using the Pierce BCA kit (Life Technologies).

For CCCCCC(O)C(O)C/C=C\CCCCCCCC(=O)O (stereo not shown) [12,13-diHOME, 12,13-dihydroxy-9Z-octadecenoic acid], the “membrane translocation of oligomeric FATP1” value [1] was “robustly induced”, the “radiolabeled FA uptake” value ([2]; 1 μM for 15 minutes, 14C palmitic acid) was “markedly increased” and the FA oxidation ([2]; 1 μM, 14C palmitic acid to CO2) was “trend to increase”. The “membrane translocation of the low glycosylation form of CD36” value [3] was “robustly induced”, the basal respiration ([4]; 1 μM for 15 min) was “significantly increased” and the maximal respiratory capacity ([4]; data not shown) was “no effect”. For the same molecule, the uncoupling ([4]; data not shown) was “no effect”.
